The values that follow come from ChEMBL document CHEMBL3259654, “Dihydrothiophene-condensed chromones from a marine-derived fungus Penicillium oxalicum and their structure-bioactivity relationship” (Bioorg Med Chem Lett, 2014).

Molecules are shown by their SMILES.

One data set concerns NCI-H1975. Put plainly: Cytotoxicity against human NCI-H1975 cells by MTT assay. Type of data set: functional, cell-based.
Another data set concerns U-937. The data set is described as follows: Cytotoxicity against human U937 cells by MTT assay. Type of data set: functional, cell-based.
The next data set relates to K562. The data set is described as follows: Cytotoxicity against human K562 cells by MTT assay. Type of data set: functional, cell-based. For orientation: Tetrazolium dyes change colour on reduction, which living cells bring about.
The nature of data set [1]: Cytotoxicity against human BGC823 cells by MTT assay. Type of data set: functional, cell-based. Conditions: BGC-823.
For a further data set, the system named is MOLT-4. The data set is described as follows: Cytotoxicity against human MOLT4 cells by MTT assay. Format: functional, cell-based.
In another data set the test system is MCF7. The data set is described as follows: Cytotoxicity against human MCF7 cells by MTT assay. Format: functional, cell-based.
For another data set, the system named is HL-60. Put plainly: Cytotoxicity against human HL60 cells by MTT assay. Format: functional, cell-based.
A short description of data set [2]: Retention time of the compound by HPLC analysis. Type of data set: physicochemical.
Data set [3] in a line: Cytotoxicity against human HuH7 cells by MTT assay. Type of data set: functional, cell-based. Conditions: Huh-7.

Turning to `COC(=O)[C@@H](C[C@](O)(C(=O)OC)[C@@H]1Cc2c(oc3cc(C)cc(O)c3c2=O)S1)OC(=O)c1cc(C(F)(F)F)cc(C(F)(F)F)c1`, the IC50 – broadly, the point on the concentration scale where inhibition reaches its midpoint – was 2.33 µM with NCI-H1975; 4.06 µM with U-937; 6.9 µM in the data set with K562; 3.95 µM in [1]; 3.02 µM in the data set on MOLT-4; 6.94 µM in the data set on MCF7. This compound also had a half-inhibitory concentration (IC50) with HL-60 of 3.79 µM.

For the compound `COC(=O)[C@@H](C[C@](O)(C(=O)OC)[C@@H]1Cc2c(oc3cc(C)cc(OC(=O)c4ccccc4)c3c2=O)S1)OC(=O)c1ccccc1`, the IC50 in the data set with MOLT-4 came to 3.99 µM; in the data set on HL-60, 4.46 µM.

With `COC(=O)[C@@H](C[C@](O)(C(=O)OC)[C@H]1Cc2c(oc3cc(C)cc(O)c3c2=O)S1)OC(=O)[C@@](OC)(c1ccccc1)C(F)(F)F`, the IC50 in data set [1] worked out at 8.81 µM; in the data set with MOLT-4 it was 6.03 µM; with HL-60, 9.14 µM.

With `COC(=O)[C@@](O)(C[C@@H](O)C(=O)O)[C@@H]1Cc2c(oc3cc(C)cc(O)c3c2=O)S1`, the IC50 in data set [1] came to 10.1 µM; in the data set on MOLT-4, 5.74 µM. Moreover, the Retention_time in [2] came out at 23.144 min.

`COC(=O)[C@@H](C[C@](OC(=O)c1cc(C(F)(F)F)cc(C(F)(F)F)c1)(C(=O)OC)[C@@H]1Cc2c(oc3cc(C)cc(OC(=O)c4cc(C(F)(F)F)cc(C(F)(F)F)c4)c3c2=O)S1)OC(=O)c1cc(C(F)(F)F)cc(C(F)(F)F)c1` gave an IC50 with U-937 of 7.2 µM. That is a single-digit micromolar value.

Turning to `COC(=O)[C@@H](C[C@](O)(C(=O)OC)[C@@H]1Cc2c(oc3cc(C)cc(O)c3c2=O)S1)OC(=O)[C@@](OC)(c1ccccc1)C(F)(F)F`, the concentration for half-maximal inhibition (IC50) worked out at 9.04 µM in the data set with U-937; 1.34 µM with K562; 5.53 µM in [1]; 4.81 µM in the data set on MOLT-4; 7.54 µM in the data set on HL-60.

For `COC(=O)[C@H](O)C[C@](O)(C(=O)OC)[C@H]1Cc2c(oc3cc(C)cc(O)c3c2=O)S1`, the IC50 is 5 µM in the data set with U-937, 2.3 µM in the data set with MOLT-4 and 6.41 µM in the data set with HL-60.

Regarding `COC(=O)[C@@H](C[C@](O)(C(=O)OC)[C@@H]1Cc2c(oc3cc(C)cc(OC(=O)c4ccc([N+](=O)[O-])cc4)c3c2=O)S1)OC(=O)c1ccc([N+](=O)[O-])cc1`, the IC50 is 6.34 µM in the data set with U-937; 1.04 µM in the data set with K562; 4.49 µM in data set [1]; 2.96 µM in the data set with MOLT-4; 6.05 µM in the data set on MCF7; 3.09 µM in the data set on HL-60. Besides, the IC50 in data set [3] is 8.77 µM.

For `COC(=O)[C@@H](C[C@](O)(C(=O)OC)[C@@H]1Cc2c(oc3cc(C)cc(O)c3c2=O)S1)OC(=O)[C@](OC)(c1ccccc1)C(F)(F)F`, the figures for the concentration for half-maximal inhibition (IC50) (in the data set with U-937; in data set [1]; in the data set on MOLT-4) were 9.85 µM, 8.82 µM and 5.89 µM, respectively.

For the compound `COC(=O)C[C@](O)(C(=O)OC)[C@@H]1Cc2c(oc3cc(C)cc(O)c3c2=O)S1`, the IC50 stood at 5.45 µM in the data set with NCI-H1975; 4.16 µM with U-937; 8.8 µM with K562; 1.96 µM in data set [1]; 1.36 µM in the data set on MOLT-4; 4.32 µM with MCF7. In addition, the figures for the IC50 (in the data set on HL-60; in [3]) were 2.96 µM and 6.33 µM, respectively.

For the compound `COC(=O)[C@H](O)C[C@](O)(C(=O)OC)[C@@H]1Cc2c(oc3cc(C)cc(O)c3c2=O)S1`, the IC50 came out at 10.4 µM in the data set on NCI-H1975; 2.35 µM in the data set with U-937; 4.53 µM in the data set with K562; 4.89 µM in [1]; 0.3 µM in the data set with MOLT-4; 11.3 µM in the data set on MCF7. Further, the IC50 in the data set on HL-60 came to 2.55 µM; in data set [3], 9.49 µM. Moreover, the Retention_time in data set [2] is on record as 24.796 min.

For the compound `COC(=O)[C@@H](C[C@](O)(C(=O)OC)[C@@H]1Cc2c(oc3cc(C)cc(O)c3c2=O)S1)OC(=O)c1ccc([N+](=O)[O-])cc1`, the IC50 with NCI-H1975 was found to be 6.97 µM; in the data set with U-937, 6.37 µM; in the data set on K562 it was 9.68 µM; in [1], 8.01 µM; with MOLT-4 it was 3.66 µM; in the data set with MCF7, 7.37 µM. Moreover, the IC50 turned out to be 3.96 µM in the data set on HL-60 and 6 µM in data set [3].
